Patent US6465716B2, “Nod factor binding protein from legume roots” (The Regents of the University of California, priority 1997, dated 2002)

How the values were obtained:
NBP46 [1] = target: T1, NBP46 (Vigna unguiculata, UniProt Q9XFC9); assay: phosphatase (phosphohydrolase) assay of NBP46; type: biochemical, Dolichos biflorus; conditions: in words; for hydrolysis of phosphate from substrate by NBP46 (phosphohydrolase activity): substrate specificity
Experimental: (§1) The sequence similarities found between NBP46 and the above enzymes prompted the testing of NBP46 for phosphohydrolase activity. The reactions were conducted in 300 μL of 60 mM MOPS, pH 6.8, containing 1 mM MgCl2 in a microtiter plate using a multichannel pipette. At various time points up to 4 minutes, 30 or 60 μL aliquots were removed and assayed for inorganic phosphate by a photometric microtiter assay (Drueckes, P., et al., Anal. Biochem. 230:173 (1995)). Conditions were chosen so that less than 10% of the total substrate was converted to product, and the initial velocity (v) was determined from the above rate measurements.
(§2) N-BP46 (201 ng/ml) was incubated at 25° C. in the presence of various concentrations of substrate in a final volume of 100 μl of 60 mM MOPS, pH 6.8, containing 1 mM MgCl2. The reactions were conducted in a microtiter plate using a multichannel pipette. At various time points, 30 μl aliquots were removed and assayed for inorganic phosphate by a photometric microtiter assay (Drueckes, P. et al. Anal. Biochem. 230:173 (1995)), modified by using four parts ammonium molybdate reagent to one part 10% ascorbate for the reagent mixture. Conditions were chosen so that less than 10% of the total substrate was converted to product.

NBP46 [2] = target: T1, NBP46; assay: competitive solid phase assay: inhibition of binding of 125I-NBP46 to HBG A+H-Sepharose; design: species or system Dolichos biflorus; conditions: up to 50 mM concentrations
Description: In a preferred embodiment, a competitive solid phase assay is used to measure NBP46 activity (Etzler, M. E., Glycoconj. J. 11:395 (1994)). This assay measures the ability of various ligands to inhibit the binding of labeled NBP46 protein to pronase-digested hog gastric mucin blood group A+H substance (HBG A+H) conjugated to Sepharose® (Quinn, J. M. & Etzler, M. E., Arch. Biochem. Biophys. 258:535 (1987)).
The monomeric nature of NBP46 in solution precluded the use of conventional precipitin or agglutination assays in determining the carbohydrate binding specificity of this lectin. Therefore a complex carbohydrate binding assay was employed (Etzler, M. E., Glycoconj. J. 11:395 (1994)).
Hog blood group A+H substance was isolated from hog gastric mucin (Etzler, M. E., Glyconj. J. 11:395 (1994)) and de-N-acetylated as described in Etzler, M. E., et al., Arch. Biochem. Biophys. 141:588 (1970). After incubation at room temperature overnight, binding was measured as previously described (Etzler, M. E., Glyconj. J. 11:395 (1994)).

NBP46 [3] = target: T1, NBP46; assay: competitive binding assay with chitin as solid phase: inhibition of binding of 125I-NBP46 to chitin; design: species or system Dolichos biflorus; conditions: for inhibition of binding of 125I-NBP46 to chitin: relative inhibition, in words
Experimental: B. japonicum USDA110 Nod factor (^▪); R. sp. NGR234(NGRA) Nod factor (^▴); R. sp. NGR234(NGRB) Nod factor (∇); R. meliloti Nod factor (^●), N-acetylglucosamine (□), chitin disaccharide (^▾); chitin tetrasaccharide (Δ); chitin pentasaccharide (♦), chitin hexasaccharide (O).
Using chitin as a solid phase, a competitive binding assay was utilized to examine the carbohydrate specificity of this protein (FIG. 3).
Solid phase binding assays were conducted using iodinated NBP46 and purified shrimp chitin powder (Sigma Chemical Company, St. Louis, Mo.), which was N-acetylated prior to use with 15 mM acetic anhydride in 0.5 M NaHCO3 for one hour at room temperature. The assays were conducted in a final volume of 100 μl of 10 mM MOPS buffer, pH 7.2, containing 0.02% Tween-20 and 0.01% NaN3.

[4] = substrate: Nc1ncnc2c1ncn2[C@@H]1O[C@H](COP(=O)(O)OP(=O)(O)O)[C@@H](O)[C@H]1O; assay: phosphatase (phosphohydrolase) assay of NBP46; type: biochemical, Dolichos biflorus; conditions: other: 60 mM MOPS, pH 6.8, 1 mM MgCl2, 25.0 °C
Experimental: as §1, §2

Molecule: Nc1ncnc2c1ncn2[C@@H]1O[C@H](COP(=O)(O)OP(=O)(O)O)[C@@H](O)[C@H]1O [ADP]
- hydrolysis of phosphate from substrate by NBP46 (phosphohydrolase activity) (NBP46 [1]): catalyzes the hydrolysis of phosphate

Molecule: Nc1ncnc2c1ncn2[C@@H]1O[C@H](COP(=O)(O)O)[C@@H](O)[C@H]1O [AMP]
- hydrolysis of phosphate from substrate by NBP46 (phosphohydrolase activity) (NBP46 [1]): no activity

Molecule: Nc1ncnc2c1ncn2[C@@H]1O[C@H](COP(=O)(O)OP(=O)(O)OP(=O)(O)O)[C@@H](O)[C@H]1O [ATP]
- hydrolysis of phosphate from substrate by NBP46 (phosphohydrolase activity) (NBP46 [1]): catalyzes the hydrolysis of phosphate

Molecule: Nc1ccn([C@@H]2O[C@H](COP(=O)(O)OP(=O)(O)OP(=O)(O)O)[C@@H](O)[C@H]2O)c(=O)n1 [CTP]
- hydrolysis of phosphate from substrate by NBP46 (phosphohydrolase activity) (NBP46 [1]): broad specificity for nucleotide triphosphates

Molecule: Nc1nc2c(ncn2[C@@H]2O[C@H](COP(=O)(O)OP(=O)(O)OP(=O)(O)O)[C@@H](O)[C@H]2O)c(=O)[nH]1 [GTP]
- hydrolysis of phosphate from substrate by NBP46 (phosphohydrolase activity) (NBP46 [1]): broad specificity for nucleotide triphosphates

Molecule: C[C@H](O)[C@@H](O)[C@@H](O)[C@H](O)C=O [L-fucose]
- inhibition of binding of 125I-NBP46 to HBG A+H-Sepharose (NBP46 [2]): no significant inhibition
- inhibition of NBP46 binding to chitin (NBP46 [3]; concentrations up to 50 mM): No significant inhibition

Molecule: CC(=O)N[C@H]1C(O)O[C@H](CO)[C@H](O)[C@@H]1O (stereo partly drawn) [N-acetyl-D-galactosamine]
- inhibition of binding of 125I-NBP46 to HBG A+H-Sepharose (NBP46 [2]): no significant inhibition

Molecule: CC(=O)N[C@@H]1[C@@H](O)[C@H](O)[C@@H](CO)O[C@H]1O [N-acetyl-D-glocosamine]
- phosphatase activity / Vmax of NBP46 after preincubation with ligand (NBP46 [1]; concentration range as worded): increase in enzyme activity is also obtained with low millimolar concentrations
- inhibition of binding of 125I-NBP46 to chitin (NBP46 [3]): Inhibition of binding was obtained with high concentrations

Molecule: O=c1ccn([C@@H]2O[C@H](COP(=O)(O)OP(=O)(O)OP(=O)(O)O)[C@@H](O)[C@H]2O)c(=O)[nH]1 [UTP]
- hydrolysis of phosphate from substrate by NBP46 (phosphohydrolase activity) (NBP46 [1]): broad specificity for nucleotide triphosphates

Molecule: CC(=O)N[C@H]1[C@H](O[C@H]2[C@H](O)[C@@H](NC(C)=O)C(O)O[C@@H]2CO)O[C@H](CO)[C@@H](O)[C@@H]1O (stereo partly drawn) [chitin disaccharide]
- inhibition of binding of 125I-NBP46 to chitin (NBP46 [3]): approximately ten-fold better inhibition than the monosaccharide

Molecule: CC(=O)NC1C(O)OC(CO)C(OC2OC(CO)C(OC3OC(CO)C(OC4OC(CO)C(OC5OC(CO)C(OC6OC(CO)C(O)C(O)C6NC(C)=O)C(O)C5NC(C)=O)C(O)C4NC(C)=O)C(O)C3NC(C)=O)C(O)C2NC(C)=O)C1O (stereo not drawn) [chitin hexasaccharide]
- inhibition of binding of 125I-NBP46 to chitin (NBP46 [3]): slightly better inhibitors than the disaccharide

Molecule: CC(=O)N[C@@H]1[C@@H](O)[C@H](O[C@@H]2O[C@H](CO)[C@@H](O[C@@H]3O[C@H](CO)[C@@H](O[C@@H]4O[C@H](CO)[C@@H](O[C@@H]5O[C@H](CO)[C@@H](O)[C@H](O)[C@H]5NC(C)=O)[C@H](O)[C@H]4NC(C)=O)[C@H](O)[C@H]3NC(C)=O)[C@H](O)[C@H]2NC(C)=O)[C@@H](CO)O[C@H]1O [chitin pentasaccharide]
- inhibition of binding of 125I-NBP46 to chitin (NBP46 [3]): slightly better inhibitors than the disaccharide

Molecule: CCCCCC/C=C\CCCCCCCCCC(=O)O [cis-vaccenic acid]
- inhibition of NBP46 binding to chitin (NBP46 [3]; concentrations up to 1.2 mM): No significant inhibition

Molecule: O=C[C@H](O)[C@@H](O)[C@H](O)[C@H](O)COP(=O)(O)O [glucose-6-phosphate]
- hydrolysis of phosphate from substrate by NBP46 (phosphohydrolase activity) (NBP46 [1]): no activity

Molecule: O=P(O)(O)OP(=O)(O)O [pyrophosphate]
- hydrolysis of phosphate from substrate by NBP46 (phosphohydrolase activity) (NBP46 [1]): no activity

B1: NBP46 (Vigna unguiculata subsp. cylindrica) (protein)
chain: QYVGNSILLNHRKILPNQELLTSYAVIFDAGSSGSRVHVFNFDQNLDLLHIGNDLEFTKKIKPGLSSYADKPEKAAESLIPLLEEAEDVVPEELHPKTPLKLGATAGLRLLDGDAAEKILQAVREMFRNRSSLSVQPDAVSVIDGTQEGSYLWVTVNYLLGKLGKKFTKTVGVIDLGGASVQMAYAVSRNTAKNAPKPPQGEDPYMKKLVLKGKKYDLYVHSYLRYGNDAARVKIFKTTDGAASPCLLAGYEDIYRYSGESYNIYGPTSGANFNECRDLALQILRLNEPCSHENCTFGGIWDGGKGSGQKNLVVTSAFYYRSSEVGFVTPPNSKNRPLDFETAAKQACSLTFEEAKSTFPNVEKDKLPFVCVDFTYQYTLLVDGFGLDPEQEITVAEGIEYQDAIVETAWPLGTAIEAISSLPKFNRLMYFI
- Km [4]: 615 µM
